Source: PubChem BioAssay AID2060513 (Molecular Pharmacology Branch, DTP, NCI, 2025)

Test system: 299254-011-R-J1-PDC complex spheroids viability
Assay: Anticancer human tumor 299254-011-R-J1-PDC patient-derived melanoma cell line growth inhibition [GQUAD]
Settings: for IC50: curve of first compound; for viability, T/C: stronger effect = lower value; active means viability on the fitted dose curve at most 10% of control; inactive means the rest
Outline: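 Viability of tumor cells grown as complex spheroids with endothelial and stromal cells, exposed to drug combinations. Top concentration at or near clinical Cmax (else 10 microM), diluted in half-log increments.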

[1] = second compound 0.0316 µM, first compound 0.0316 µM
[2] = second compound 0.0316 µM, first compound 0.316 µM
[3] = second compound 0.1 µM, first compound 0.0316 µM
[4] = second compound 0.1 µM, first compound 0.316 µM
[5] = second compound 0.316 µM, first compound 0.0316 µM
[6] = second compound 0.316 µM, first compound 0.316 µM
[7] = second compound 1 µM, first compound 0.0316 µM
[8] = second compound 1 µM, first compound 0.316 µM
[9] = second compound 3.16 µM, first compound 0.0316 µM
[10] = second compound 3.16 µM, first compound 0.316 µM
[11] = second compound 10 µM, first compound 0.0316 µM
[12] = second compound 10 µM, first compound 0.316 µM
[13] = second compound 0.0316 µM, first compound 0.1 µM
[14] = second compound 0.0316 µM, first compound 1 µM
[15] = second compound 0.0316 µM, first compound 3.16 µM
[16] = second compound 0.0316 µM, first compound 10 µM
[17] = second compound 0.1 µM, first compound 0.1 µM
[18] = second compound 0.1 µM, first compound 1 µM
[19] = second compound 0.1 µM, first compound 3.16 µM
[20] = second compound 0.1 µM, first compound 10 µM
[21] = second compound 0.316 µM, first compound 0.1 µM
[22] = second compound 0.316 µM, first compound 1 µM
[23] = second compound 0.316 µM, first compound 3.16 µM
[24] = second compound 0.316 µM, first compound 10 µM
[25] = second compound 1 µM, first compound 0.1 µM
[26] = second compound 1 µM, first compound 1 µM
[27] = second compound 1 µM, first compound 3.16 µM
[28] = second compound 1 µM, first compound 10 µM
[29] = second compound 3.16 µM, first compound 0.1 µM
[30] = second compound 3.16 µM, first compound 1 µM
[31] = second compound 3.16 µM, first compound 3.16 µM
[32] = second compound 3.16 µM, first compound 10 µM
[33] = second compound 10 µM, first compound 0.1 µM
[34] = second compound 10 µM, first compound 1 µM
[35] = second compound 10 µM, first compound 3.16 µM
[36] = second compound 10 µM, first compound 10 µM
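Further: spheroids exposed to the agents for seven days before readout.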
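Wherever viability, T/C is given: percent viability relative to DMSO vehicle control wells = 100%.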

CCc1c2c(nc3ccc(O)cc13)-c1cc3c(c(=O)n1C2)COC(=O)[C@]3(O)CC + Cc1[nH]c2ccc(F)cc2c1-c1nc2c3cccnc3c3ncccc3c2[nH]1
> 0.316 µM: IC50 (second compound 0.0316 µM) | IC50 (second compound 0.1 µM) | IC50 (second compound 0.316 µM) | IC50 (second compound 1 µM) | IC50 (second compound 3.16 µM) | IC50 (second compound 10 µM)
inactive: viability, T/C (second compound 0.0316 µM, first compound 0.000999 µM) 106% | viability, T/C (second compound 0.0316 µM, first compound 0.00316 µM) 88.8% | viability, T/C (second compound 0.0316 µM, first compound 0.00999 µM) 73.2% | viability, T/C [1] 73.7% | viability, T/C (second compound 0.0316 µM, first compound 0.0999 µM) 79.6% | viability, T/C [2] 66.1% | viability, T/C (second compound 0.1 µM, first compound 0.000999 µM) 108% | viability, T/C (second compound 0.1 µM, first compound 0.00316 µM) 117% | viability, T/C (second compound 0.1 µM, first compound 0.00999 µM) 85.4% | viability, T/C [3] 90.2% | viability, T/C (second compound 0.1 µM, first compound 0.0999 µM) 79.6% | viability, T/C [4] 64.8% | viability, T/C (second compound 0.316 µM, first compound 0.000999 µM) 91.1% | viability, T/C (second compound 0.316 µM, first compound 0.00316 µM) 117% | viability, T/C (second compound 0.316 µM, first compound 0.00999 µM) 69.2% | viability, T/C [5] 84.2% | viability, T/C (second compound 0.316 µM, first compound 0.0999 µM) 88.2% | viability, T/C [6] 70.2% | viability, T/C (second compound 1 µM, first compound 0.000999 µM) 105% | viability, T/C (second compound 1 µM, first compound 0.00316 µM) 92.7% | viability, T/C (second compound 1 µM, first compound 0.00999 µM) 94.2% | viability, T/C [7] 77.5% | viability, T/C (second compound 1 µM, first compound 0.0999 µM) 84% | viability, T/C [8] 68.6% | viability, T/C (second compound 3.16 µM, first compound 0.000999 µM) 102% | viability, T/C (second compound 3.16 µM, first compound 0.00316 µM) 114% | viability, T/C (second compound 3.16 µM, first compound 0.00999 µM) 75.7% | viability, T/C [9] 80.7% | viability, T/C (second compound 3.16 µM, first compound 0.0999 µM) 79.9% | viability, T/C [10] 72.2% | viability, T/C (second compound 10 µM, first compound 0.000999 µM) 96.1% | viability, T/C (second compound 10 µM, first compound 0.00316 µM) 94.4% | viability, T/C (second compound 10 µM, first compound 0.00999 µM) 80.7% | viability, T/C [11] 76.8% | viability, T/C (second compound 10 µM, first compound 0.0999 µM) 60.1% | viability, T/C [12] 58.8%

COc1cc(C2c3cc4c(cc3C(OC3OC5COC(C)OC5C(O)C3O)C3COC(=O)C23)OCO4)cc(OC)c1O (stereo not drawn) + Cc1[nH]c2ccc(F)cc2c1-c1nc2c3cccnc3c3ncccc3c2[nH]1
inactive: viability, T/C [1] 81.2% | viability, T/C [13] 79.1% | viability, T/C [2] 108% | viability, T/C [14] 85% | viability, T/C [15] 94.5% | viability, T/C [16] 76.5% | viability, T/C [3] 100% | viability, T/C [17] 97.5% | viability, T/C [4] 81.2% | viability, T/C [18] 76.5% | viability, T/C [19] 99.2% | viability, T/C [20] 80.1% | viability, T/C [5] 100% | viability, T/C [21] 77.3% | viability, T/C [6] 82.5% | viability, T/C [22] 86.9% | viability, T/C [23] 84.3% | viability, T/C [24] 70.5% | viability, T/C [7] 101% | viability, T/C [25] 86% | viability, T/C [8] 106% | viability, T/C [26] 87.1% | viability, T/C [27] 96.7% | viability, T/C [28] 72.2% | viability, T/C [9] 99.9% | viability, T/C [29] 84.9% | viability, T/C [10] 89.5% | viability, T/C [30] 89.4% | viability, T/C [31] 89.5% | viability, T/C [32] 95% | viability, T/C [11] 89.7% | viability, T/C [33] 83% | viability, T/C [12] 95.3% | viability, T/C [34] 86.1% | viability, T/C [35] 96.2% | viability, T/C [36] 56.5%
> 10 µM: IC50 (second compound 0.0316 µM) | IC50 (second compound 0.1 µM) | IC50 (second compound 0.316 µM) | IC50 (second compound 1 µM) | IC50 (second compound 3.16 µM) | IC50 (second compound 10 µM)

COc1cccc2c1C(=O)c1c(O)c3c(c(O)c1C2=O)CC(O)(C(=O)CO)CC3OC1CC(N)C(O)C(C)O1 (stereo not drawn) + Cc1[nH]c2ccc(F)cc2c1-c1nc2c3cccnc3c3ncccc3c2[nH]1
4.92 µM: IC50 (second compound 1 µM)
5.32 µM: IC50 (second compound 0.316 µM)
2.56 µM: IC50 (second compound 10 µM)
4.19 µM: IC50 (second compound 0.1 µM)
inactive: viability, T/C [1] 100% | viability, T/C [13] 91.5% | viability, T/C [2] 82.2% | viability, T/C [14] 90.5% | viability, T/C [15] 62.4% | viability, T/C [16] 25.7% | viability, T/C [3] 91.4% | viability, T/C [17] 91.7% | viability, T/C [4] 88% | viability, T/C [18] 66.4% | viability, T/C [19] 64.7% | viability, T/C [20] 23.8% | viability, T/C [5] 94.2% | viability, T/C [21] 92.1% | viability, T/C [6] 93.3% | viability, T/C [22] 94.7% | viability, T/C [23] 74.4% | viability, T/C [24] 20.4% | viability, T/C [7] 88.9% | viability, T/C [25] 86.9% | viability, T/C [8] 94.2% | viability, T/C [26] 95.3% | viability, T/C [27] 69.1% | viability, T/C [28] 19.3% | viability, T/C [9] 89.9% | viability, T/C [29] 91.7% | viability, T/C [10] 90.1% | viability, T/C [30] 70.3% | viability, T/C [31] 50.2% | viability, T/C [32] 13.4% | viability, T/C [11] 90.2% | viability, T/C [33] 91.3% | viability, T/C [12] 82.6% | viability, T/C [34] 83.3% | viability, T/C [35] 42.6% | viability, T/C [36] 11.9%
4.67 µM: IC50 (second compound 0.0316 µM)
2.99 µM: IC50 (second compound 3.16 µM)

Nc1ccn(C2OC(CO)C(O)C2(F)F)c(=O)n1 (stereo not drawn) + Cc1[nH]c2ccc(F)cc2c1-c1nc2c3cccnc3c3ncccc3c2[nH]1
> 10 µM: IC50 (second compound 0.0316 µM) | IC50 (second compound 0.316 µM) | IC50 (second compound 1 µM) | IC50 (second compound 3.16 µM) | IC50 (second compound 10 µM)
inactive: viability, T/C [1] 112% | viability, T/C [13] 78.3% | viability, T/C [2] 77.8% | viability, T/C [14] 74.3% | viability, T/C [15] 68.1% | viability, T/C [16] 54.6% | viability, T/C [3] 128% | viability, T/C [17] 94.5% | viability, T/C [4] 63.7% | viability, T/C [18] 64.5% | viability, T/C [19] 56.5% | viability, T/C [20] 59.6% | viability, T/C [5] 116% | viability, T/C [21] 99.5% | viability, T/C [6] 59.8% | viability, T/C [22] 70.5% | viability, T/C [23] 47.8% | viability, T/C [24] 66.9% | viability, T/C [7] 117% | viability, T/C [25] 112% | viability, T/C [8] 72.4% | viability, T/C [26] 49% | viability, T/C [27] 60.6% | viability, T/C [28] 74% | viability, T/C [9] 96.4% | viability, T/C [29] 97% | viability, T/C [10] 70.8% | viability, T/C [30] 58.1% | viability, T/C [31] 55.4% | viability, T/C [32] 52.2% | viability, T/C [11] 102% | viability, T/C [33] 103% | viability, T/C [12] 62.9% | viability, T/C [34] 45.6% | viability, T/C [35] 59% | viability, T/C [36] 49%
6.46 µM: IC50 (second compound 0.1 µM)
